Data: US20020026051A1, “Dithiepino [6,5-b]pyridines, and related compositions and methods” (priority 1999, published 2002)

biological target: T1, calcium channel (Oryctolagus cuniculus, UniProt P15381); assay: Assay for Inhibition of Nitrendipine Binding (3H-nitrendipine, heart membranes); settings: 3H-nitrendipine displacement, rabbit heart membranes; Tables 1-5
T1 construct: from tissue; host or cells: rabbit heart membrane preparation
Method: Female, New Zealand white rabbits (1-2 kg) are sacrificed by cervical dislocation, and the heart is immediately removed, cleaned and chopped into small pieces. The tissue is homogenized in 5× times volume of 0.05M Hepes buffer, pH 7.4. The homogenate is centrifuged at 4000 g for 10 minutes, and the supernatant is re-centrifuged at 42,000×g for 90 minutes. The resulting membrane pellet is resuspended (0.7 ml/g weight) in 0.05M Hepes, pH 7.4 and stored at […] until used. Each tube of the binding assay contains ^3H-nitrendipine (0.05-0.50 nM), buffer, membranes (0.10 ml), and test compound in a total volume of 1.0 ml. After 90 minutes at 4° C., the bound nitrendipine is separated from the unbound by filtration on Whatman GF/C filters. After rinsing, the filters are dried and counted in a liquid scintillation counter.
Non-specific binding of ^3H-nitrendipine (that amount bound in the presence of excess unlabelled nitrendipine) is subtracted from the total bound to obtain specifically bound radiolabeled nitrendipine. The amount of specifically bound nitrendipine in the presence of a test compound is compared to that amount bound in the absence of a compound. A percent displacement (or inhibition) can then be calculated.

T1 sequence (P15381 whole entry, other chains not shown): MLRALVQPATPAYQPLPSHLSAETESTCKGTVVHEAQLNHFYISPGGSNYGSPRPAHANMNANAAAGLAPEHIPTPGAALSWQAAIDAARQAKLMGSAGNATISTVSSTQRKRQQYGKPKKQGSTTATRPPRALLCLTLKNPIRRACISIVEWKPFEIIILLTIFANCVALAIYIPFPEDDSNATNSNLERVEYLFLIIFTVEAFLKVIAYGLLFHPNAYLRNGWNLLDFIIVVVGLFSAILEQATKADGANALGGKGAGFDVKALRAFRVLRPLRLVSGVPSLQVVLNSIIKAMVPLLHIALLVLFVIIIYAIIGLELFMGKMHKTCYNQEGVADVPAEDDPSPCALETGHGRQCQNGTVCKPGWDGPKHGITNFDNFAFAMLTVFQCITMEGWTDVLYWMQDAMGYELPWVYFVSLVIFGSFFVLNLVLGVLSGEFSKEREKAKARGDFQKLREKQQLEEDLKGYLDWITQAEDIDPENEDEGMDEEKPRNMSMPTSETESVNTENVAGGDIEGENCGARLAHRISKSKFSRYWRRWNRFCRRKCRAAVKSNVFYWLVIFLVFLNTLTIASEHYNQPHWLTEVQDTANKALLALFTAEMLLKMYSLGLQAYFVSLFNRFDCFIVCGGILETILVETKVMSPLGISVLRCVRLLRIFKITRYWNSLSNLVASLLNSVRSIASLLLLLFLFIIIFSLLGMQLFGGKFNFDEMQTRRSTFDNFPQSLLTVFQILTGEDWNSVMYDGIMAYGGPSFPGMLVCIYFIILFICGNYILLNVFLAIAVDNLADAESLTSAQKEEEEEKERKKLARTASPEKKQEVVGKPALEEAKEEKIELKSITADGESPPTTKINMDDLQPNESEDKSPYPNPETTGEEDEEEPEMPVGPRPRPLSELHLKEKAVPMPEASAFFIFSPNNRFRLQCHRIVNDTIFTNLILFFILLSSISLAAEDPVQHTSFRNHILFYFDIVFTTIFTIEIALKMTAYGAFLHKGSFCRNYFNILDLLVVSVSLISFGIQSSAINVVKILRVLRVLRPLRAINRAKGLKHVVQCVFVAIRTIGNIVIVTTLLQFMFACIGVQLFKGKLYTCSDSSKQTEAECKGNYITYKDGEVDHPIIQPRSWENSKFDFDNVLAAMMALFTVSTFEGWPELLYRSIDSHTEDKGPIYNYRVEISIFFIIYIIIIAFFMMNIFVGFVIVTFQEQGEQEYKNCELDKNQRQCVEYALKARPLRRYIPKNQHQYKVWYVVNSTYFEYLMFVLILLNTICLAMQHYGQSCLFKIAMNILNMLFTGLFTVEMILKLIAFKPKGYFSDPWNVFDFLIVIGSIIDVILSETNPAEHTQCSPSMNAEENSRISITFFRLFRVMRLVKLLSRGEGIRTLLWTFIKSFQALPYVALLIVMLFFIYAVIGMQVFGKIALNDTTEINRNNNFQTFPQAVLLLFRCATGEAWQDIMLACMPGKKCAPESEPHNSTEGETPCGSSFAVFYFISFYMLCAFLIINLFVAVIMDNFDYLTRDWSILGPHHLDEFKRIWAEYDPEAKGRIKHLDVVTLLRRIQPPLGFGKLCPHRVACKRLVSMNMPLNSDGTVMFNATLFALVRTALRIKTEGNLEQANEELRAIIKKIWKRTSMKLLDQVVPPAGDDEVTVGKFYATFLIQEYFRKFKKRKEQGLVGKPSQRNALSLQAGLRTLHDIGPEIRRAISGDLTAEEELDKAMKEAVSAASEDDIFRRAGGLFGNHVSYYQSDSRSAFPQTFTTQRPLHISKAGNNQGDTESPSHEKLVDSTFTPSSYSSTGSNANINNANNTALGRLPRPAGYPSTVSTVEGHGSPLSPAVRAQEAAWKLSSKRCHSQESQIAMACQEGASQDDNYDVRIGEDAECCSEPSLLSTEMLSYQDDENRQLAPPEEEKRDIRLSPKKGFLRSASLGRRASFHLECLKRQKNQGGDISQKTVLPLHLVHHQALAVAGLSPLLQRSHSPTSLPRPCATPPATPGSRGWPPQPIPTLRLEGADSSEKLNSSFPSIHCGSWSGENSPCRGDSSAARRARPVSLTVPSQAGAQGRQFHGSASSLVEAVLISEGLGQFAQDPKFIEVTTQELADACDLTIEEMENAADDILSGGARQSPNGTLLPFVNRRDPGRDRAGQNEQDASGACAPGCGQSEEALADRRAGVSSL
T1 sequence (P13806 27-960 partner limits assumed, other chains not shown): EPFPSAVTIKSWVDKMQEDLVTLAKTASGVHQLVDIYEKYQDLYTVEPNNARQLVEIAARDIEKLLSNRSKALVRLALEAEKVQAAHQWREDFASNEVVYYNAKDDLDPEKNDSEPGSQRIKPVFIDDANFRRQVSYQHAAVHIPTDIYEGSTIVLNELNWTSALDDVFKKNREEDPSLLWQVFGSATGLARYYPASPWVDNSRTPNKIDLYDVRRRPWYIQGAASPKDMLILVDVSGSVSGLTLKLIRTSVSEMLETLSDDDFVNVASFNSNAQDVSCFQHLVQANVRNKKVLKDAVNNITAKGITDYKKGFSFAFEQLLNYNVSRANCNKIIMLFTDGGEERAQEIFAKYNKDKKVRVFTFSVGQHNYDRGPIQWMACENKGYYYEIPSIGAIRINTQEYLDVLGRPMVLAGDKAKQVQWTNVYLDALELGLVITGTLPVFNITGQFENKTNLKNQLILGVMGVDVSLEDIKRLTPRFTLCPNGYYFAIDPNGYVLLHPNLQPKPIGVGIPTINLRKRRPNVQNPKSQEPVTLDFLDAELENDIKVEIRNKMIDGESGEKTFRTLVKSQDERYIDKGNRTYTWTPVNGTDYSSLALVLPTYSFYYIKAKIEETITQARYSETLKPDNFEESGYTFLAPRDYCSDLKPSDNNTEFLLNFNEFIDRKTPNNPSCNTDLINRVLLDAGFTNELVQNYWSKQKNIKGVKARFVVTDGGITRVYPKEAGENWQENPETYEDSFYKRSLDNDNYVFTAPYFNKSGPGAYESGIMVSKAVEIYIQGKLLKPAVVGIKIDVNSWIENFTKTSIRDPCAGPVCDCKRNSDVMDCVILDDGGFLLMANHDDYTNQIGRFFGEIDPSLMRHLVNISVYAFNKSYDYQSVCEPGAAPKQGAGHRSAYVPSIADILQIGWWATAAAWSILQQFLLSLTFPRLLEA
T1 sequence (P13806 961-1106 partner limits assumed, other chains not shown): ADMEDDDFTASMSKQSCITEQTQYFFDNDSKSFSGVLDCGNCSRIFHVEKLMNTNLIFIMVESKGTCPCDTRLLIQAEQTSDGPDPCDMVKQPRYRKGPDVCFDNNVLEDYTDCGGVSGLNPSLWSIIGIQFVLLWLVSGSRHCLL

Going from `CC1=C(C(=O)OCCN(C)Cc2ccccc2)[C@H](c2c(F)cccc2Cl)C2=C(CS(=O)(=O)CCS2(=O)=O)N1` (single isomer, unassigned) [Compound 3, 5H-1,4-Dithiepino[6,5-b]pyridine-8-carboxylic acid, 9-(2-chloro-6-fluorophenyl)-2,3,6,9-tetrahydro-7-methyl-2-[methyl(phenylmethyl)amino]ethyl ester 1,1,4,4-tetraoxide] to `CC1=C(C(=O)OCCN(C)Cc2ccccc2)C(c2c(O)cccc2Cl)C2=C(CS(=O)(=O)CCS2(=O)=O)N1` (centres unmarked) [Compound 4, 5H-1,4-Dithiepino[6,5-b]pyridine-8-carboxylic acid, 9-(2-chloro-6-hydroxyphenyl)-2,3,6,9-tetrahydro-7-methyl-2-[methyl(phenylmethyl)amino]ethyl ester 1,1,4,4-tetraoxide], the IC50 falls from 160000 nM to 390 nM (410-fold).

First: CC1=C(C(=O)OCCN(C)Cc2ccccc2)C(c2c(F)cccc2C(F)(F)F)C2=C(CS(=O)(=O)CCS2(=O)=O)N1 (centres unmarked) [Compound 5, 5H-1,4-Dithiepino[6,5-b]pyridine-8-carboxylic acid, 9-[2-fluoro-6-(trifluoromethyl)phenyl]-2,3,6,9-tetrahydro-7-methyl-2-[methyl(phenylmethyl)amino]ethyl ester 1,1,4,4-tetraoxide]
Second: CC1=C(C(=O)OCCN(C)Cc2ccccc2)C(c2c(F)cccc2C(F)(F)F)C2=C(CS(=O)(=O)CCCS2(=O)=O)N1 (centres unmarked) [Compound 26, 2H,6H-1,5-Dithiocino[3,2-b]pyridine-9-carboxylic acid, 10-[2-fluoro-6-(trifluoromethyl)phenyl]-3,4,7,10-tetrahydro-8-methyl-2-[methyl(phenylmethyl)amino]ethyl ester 1,1,5,5-tetraoxide]
The IC50 of the first is 2.3-fold lower: 12 nM for the first, 28 nM for the second.

First: CC1=C(C(=O)OCCN(C)Cc2ccccc2)C(c2ccccc2Cl)C2=C(CS(=O)(=O)CCS2(=O)=O)N1 (centres unmarked) [Compound 6, 5H-1,4-Dithiepino[6,5-b]pyridine-8-carboxylic acid, 9-(2-chlorophenyl)-2,3,6,9-tetrahydro-7-methyl-2-[methyl(phenylmethyl)amino]ethyl ester 1,1,4,4-tetraoxide]
Second: CC1=C(C(=O)OCCN(C)Cc2ccccc2)C(c2cccc(C(F)(F)F)c2F)C2=C(CS(=O)(=O)CCS2(=O)=O)N1 (centres unmarked) [Compound 7, 5H-1,4-Dithiepino[6,5-b]pyridine-8-carboxylic acid, 9-[2-fluoro-3-(trifluoromethyl)phenyl]-2,3,6,9-tetrahydro-7-methyl-2-[methyl(phenylmethyl)amino]ethyl ester 1,1,4,4-tetraoxide]
The IC50 of the first is 2.5-fold higher: 45 nM for the first, 18 nM for the second.

First: CC1=C(C(=O)OCCN(C)Cc2ccccc2)C(c2cccc([N+](=O)[O-])c2)C2=C(CS(=O)(=O)CCS2(=O)=O)N1 (centres unmarked) [Compound 8, 5H-1,4-Dithiepino[6,5-b]pyridine-8-carboxylic acid, 2,3,6,9-tetrahydro-7-methyl-9-(3-nitrophenyl)-2-[methyl(phenylmethyl)amino]ethyl ester 1,1,4,4-tetraoxide]
Second: CC1=C(C(=O)OCCN(C)Cc2ccccc2)C(c2cccc([N+](=O)[O-])c2)C2=C(CS(=O)(=O)CCCS2(=O)=O)N1 (centres unmarked) [Compound 25, 2H,6H-1,5-Dithiocino[3,2-b]pyridine-9-carboxylic acid, 3,4,7,10-tetrahydro-8-methyl-10-(3-nitrophenyl)-2-[methyl(phenylmethyl)amino]ethyl ester 1,1,5,5-tetraoxide]
The IC50 of the first is 4.3-fold higher: 43 nM for the first, 10 nM for the second. The second is the more potent here.

Going from `CC1=C(C(=O)OCCN(C)Cc2ccccc2)C(c2cc(F)c(F)c(F)c2)C2=C(CS(=O)(=O)CCS2(=O)=O)N1` (centres unmarked) [Compound 9, 5H-1,4-Dithiepino[6,5-b]pyridine-8-carboxylic acid, 2,3,6,9-tetrahydro-7-methyl-9-(3,4,5-trifluorophenyl)-2-[methyl(phenylmethyl)amino]ethyl ester 1,1,4,4-tetraoxide] to `CC1=C(C(=O)OCCN(C)Cc2cccs2)C(c2cc(F)c(F)c(F)c2)C2=C(CS(=O)(=O)CCS2(=O)=O)N1` (centres unmarked) [Compound 10, 5H-1,4-Dithiepino[6,5-b]pyridine-8-carboxylic acid, 2,3,6,9-tetrahydro-7-methyl-9-(3,4,5-trifluorophenyl)-2-[methyl(2-thienylmethyl)amino]ethyl ester 1,1,4,4-tetraoxide], the IC50 rises from 13 nM to 24 nM (1.8-fold). The first is the more potent here.

Going from `COC(=O)C1=C(C)NC2=C(C1c1c(F)cccc1Cl)S(=O)(=O)CCS(=O)(=O)C2` (centres unmarked) [Compound 11, 5H-1,4-Dithiepino[6,5-b]pyridine-8-carboxylic acid, 9-(2-chloro-6-fluorophenyl)-2,3,6,9-tetrahydro-7-methyl-methyl ester 1,1,4,4-tetraoxide] to `COC(=O)C1=C(C)NC2=C(C1c1c(F)cccc1F)S(=O)(=O)CCS(=O)(=O)C2` (centres unmarked) [Compound 14, 5H-1,4-Dithiepino[6,5-b]pyridine-8-carboxylic acid, 9-(2,6-difluorophenyl)-2,3,6,9-tetrahydro-7-methyl-methyl ester 1,1,4,4-tetraoxide], the IC50 rises from 91 nM to 259 nM (2.8-fold).

First: COC(=O)C1=C(C)NC2=C(C1c1c(F)c(F)c(F)c(F)c1F)S(=O)(=O)CCS(=O)(=O)C2 (centres unmarked) [Compound 13, 5H-1,4-Dithiepino[6,5-b]pyridine-8-carboxylic acid, 2,3,6,9-tetrahydro-7-methyl-9-(pentafluorophenyl)-methyl ester 1,1,4,4-tetraoxide]
Second: COC(=O)C1=C(C)NC2=C(C1c1cccc(F)c1F)S(=O)(=O)CCS(=O)(=O)C2 (centres unmarked) [Compound 18, 5H-1,4-Dithiepino[6,5-b]pyridine-8-carboxylic acid, 9-(2,3-difluorophenyl)-2,3,6,9-tetrahydro-7-methyl-methyl ester 1,1,4,4-tetraoxide]
The IC50 of the first is 2.5-fold lower: 27 nM for the first, 68 nM for the second.

Going from `COC(=O)C1=C(C)NC2=C(C1c1ccccc1Cl)S(=O)(=O)CCS(=O)(=O)C2` (centres unmarked) [Compound 15, 5H-1,4-Dithiepino[6,5-b]pyridine-8-carboxylic acid, 9-(2-chlorophenyl)-2,3,6,9-tetrahydro-7-methyl-methyl ester 1,1,4,4-tetraoxide] to `COC(=O)C1=C(C)NC2=C(C1c1ccccc1F)S(=O)(=O)CCS(=O)(=O)C2` (centres unmarked) [Compound 16, 5H-1,4-Dithiepino[6,5-b]pyridine-8-carboxylic acid, 9-(2-fluorophenyl)-2,3,6,9-tetrahydro-7-methyl-methyl ester 1,1,4,4-tetraoxide], the IC50 rises from 61 nM to 265 nM (4.3-fold). The first is the more potent here.

`COC(=O)C1=C(C)NC2=C(C1c1cccc(C(F)(F)F)c1F)S(=O)(=O)CCS(=O)(=O)C2` (centres unmarked) [Compound 17, 5H-1,4-Dithiepino[6,5-b]pyridine-8-carboxylic acid, 9-[2-fluoro-3-(trifluoromethyl)phenyl]-2,3,6,9-tetrahydro-7-methyl-methyl ester 1,1,4,4-tetraoxide] and `C=C1CS(=O)(=O)C2=C(CS1(=O)=O)NC(C)=C(C(=O)OC)C2c1cccc(C(F)(F)F)c1F` (centres unmarked) [Compound 20, 5H-1,4-Dithiepino[6,5-b]pyridine-8-carboxylic acid, 9-[2-fluoro-3-(trifluoromethyl)phenyl]-2,3,6,9-tetrahydro-7-methyl-3-methylene-methyl ester 1,1,4,4-tetraoxide] are within 1.5-fold of each other in IC50: 20 nM for the first, 21 nM for the second.

`COC(=O)C1=C(C)NC2=C(C1c1ccccc1[N+](=O)[O-])S(=O)(=O)CCS(=O)(=O)C2` (centres unmarked) [Compound 19, 5H-1,4-Dithiepino[6,5-b]pyridine-8-carboxylic acid, 2,3,6,9-tetrahydro-7-methyl-9-(2-nitrophenyl)-methyl ester 1,1,4,4-tetraoxide] and `COC(=O)C1=C(C)NC2=C(C1c1cccc(C(F)(F)F)c1F)S(=O)(=O)CC(CO)S(=O)(=O)C2` (centres unmarked) [Compound 22, 5H-1,4-Dithiepino[6,5-b]pyridine-8-carboxylic acid, 9-[2-fluoro-3-(trifluoromethyl)phenyl]-2,3,6,9-tetrahydro-3-(hydroxymethyl)-7-methyl-methyl ester 1,1,4,4-tetraoxide] are within 1.5-fold of each other in IC50: 210 nM for the first, 193 nM for the second.

First: C=C1CS(=O)(=O)C2=C(CS1(=O)=O)NC(C)=C(C(=O)OCCN(C)Cc1ccccc1)C2c1cccc(C(F)(F)F)c1F (centres unmarked) [Compound 21, 5H-1,4-Dithiepino[6,5-b]pyridine-8-carboxylic acid, 9-[2-fluoro-3-(trifluoromethyl)phenyl]-2,3,6,9-tetrahydro-7-methyl-3-methylene-2-[methyl(phenylmethyl)amino]ethyl ester 1,1,4,4-tetraoxide]
Second: CC1=C(C(=O)OCCN(C)Cc2ccccc2)C(c2cccc(C(F)(F)F)c2F)C2=C(CS(=O)(=O)C(CO)CS2(=O)=O)N1 (centres unmarked) [Compound 23, 5H-1,4-Dithiepino[6,5-b]pyridine-8-carboxylic acid, 9-[2-fluoro-3-(trifluoromethyl)phenyl]-2,3,6,9-tetrahydro-3-(hydroxymethyl)-7-methyl-2-[methyl(phenylmethyl)amino]ethyl ester 1,1,4,4-tetraoxide]
The IC50 of the first is 5.7-fold lower: 38 nM for the first, 215 nM for the second.

Work on `CC1=C(C(=O)OCCN(C)Cc2ccccc2)C(c2cccc([N+](=O)[O-])c2)C2=C(CS(=O)(=O)C(CO)CS2(=O)=O)N1` (centres unmarked) [Compound 24, 5H-1,4-Dithiepino[6,5-b]pyridine-8-carboxylic acid, 2,3,6,9-tetrahydro-3-(hydroxymethyl)-7-methyl-9-(3-nitrophenyl)-2-[methyl(phenylmethyl)amino]ethyl ester 1,1,4,4-tetraoxide] yielded an IC50 of 337 nM.
